Experimental data taken from ChEMBL document CHEMBL1201862, “PubChem BioAssay data set” (2004).
Calls of active or inactive are those of the source.

Experiments:
[1] = inhibitors of firefly luciferase expression or activity, dose response, H4 neuroglioma cells, luminescence (AID 1990); type: functional, cell-based
[2] = tested on: BJ; assay: cytotoxicity toward BJ-TERT fibroblasts, dose response, cell-based, RAS-independent, luminescence (AID 1933); type: functional; settings: Homo sapiens
[3] = Luminescence Cell-Based Dose Response HTS to Identify Inhibitors of 5'UTR Stem-Loop Driven Prion Protein mRNA Translation in H4 Neuroglioblastoma Cells. [Related pubchem assays: 1827 (Project Summary), 1813 (Primary HTS)]; type: functional
[4] = inhibitors of SNCA 5'UTR-driven reporter translation, confirmation, H4 neuroglioma cells, luminescence (AID 1988); type: functional, cell-based
[5] = tested on: BJ; assay: cells; type: functional, cell-based; settings: Homo sapiens
[6] = tested on: BJ; assay: cytotoxicity toward BJ-TERT-LT-ST fibroblasts, dose response, cell-based, RAS-independent, luminescence (AID 1935); type: functional; settings: Homo sapiens;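 also: BJ fibroblasts immortalized with TERT plus LT and ST oncogenes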
[7] = cytotoxicity toward DRD oncogenic fibroblasts, dose response, cell-based, non-viral oncogenic, luminescence (AID 1934); type: functional; settings: Homo sapiens
[8] = cytotoxicity in HEK-293T cells, dose response, cytotoxicity control for TCR NF-kB inhibitor project, luminescence, T-cell screen hits (AID 489026); type: functional, cell-based;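 also: cells exposed to compound about 14 hours before the viability readout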
[9] = tested on: BJ; assay: cytotoxicity toward Ras-transformed BJeLR fibroblasts, dose response, cell-based, alamar blue fluorescence, cherrypicked samples (AID 2631); type: functional; settings: Homo sapiens;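 also: confirmatory dose-response assay in RAS-dependent BJ fibroblasts engineered with TERT, LT and ST, with cytotoxicity read by fluorescence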
[10] = HEK293 cell cytotoxicity, dose response, cytotoxicity control, dry powder samples (AID 720567); type: functional, cell-based
[11] = HepG2 cell cytotoxicity, dose response, cytotoxicity control, dry powder samples (AID 720568); type: functional, cell-based
[12] = CTGF mRNA reduction under YAP1 overexpression, dose response, mechanism study for YAP1 pathway inhibitor project, DLD1 cells, RT-qPCR, cherry-pick (AID 1053127); type: functional, cell-based; settings: DLD-1
[13] = YAP1 pathway inhibition via CTGF transcript levels, dose response, cell-based, DLD1 colon cancer, RT-qPCR, cherry-pick (AID 1053122); type: functional; settings: Cancer cell lines
[14] = target: DNA (cytosine-5)-methyltransferase 1 (Homo sapiens, UniProt P26358); assay: DNMT1 methyltransferase inhibitors, confirmation, biochemical, fluorescent molecular beacon (AID 602386); type: functional
[15] = target: NAD-dependent protein deacylase sirtuin-5, mitochondrial (Homo sapiens, UniProt Q9NXA8); assay: SIRT5 desuccinylase inhibitors, dose response, biochemical, fluorescence imaging, cherry-pick, set 5 (AID 720591);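 also: desuccinylation of succinyl peptide AMC substrate read as fluorescence after trypsin release; potency of inhibitors that lower fluorescence and may act on trypsin instead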
[16] = miR-122 activators in hepatoma reporter cells, dose response, cell-based, Huh7 psiCHECK-miR122, Renilla luciferase, cherry-picked (AID 651956); type: functional;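 also: huh7 hepatoma cells stably carrying a psiCHECK-2 miR-122 sensor plasmid; renilla luciferase signal reporting endogenous miR-122 activity after 48 h compound exposure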
[17] = inhibitors of PGC1a acetylation in cells, dose response, cell-based, cherry-picked samples (AID 720514); type: functional;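 also: potency may reflect raised or lowered acetylation signal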
[18] = HEK293T cytotoxicity, dose response, cytotoxicity control for miR-122 modulator project, cell-based, activator set, cherry-pick (AID 720690); type: functional;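 also: HEK293T human cells scored for general mammalian cytotoxicity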
[19] = P. falciparum Dd2 growth inhibitors, dose response, SYBR Green, cherry-picked samples (AID 1159567); type: functional, cell-based
[20] = HepG2 cell cytotoxicity, dose response, cytotoxicity control, cherry-picked samples (AID 1159577); type: functional, cell-based
[21] = A549 cell cytotoxicity, dose response, cytotoxicity control, 24 h, CellTiter-Glo luminescence, cherry-picks (AID 1053115); type: functional, cell-based; settings: A549, 24 h
[22] = inhibitors of non-replicating M. tuberculosis, dose response, luciferase, dry powder (AID 651619); type: functional; settings: Mycobacterium tuberculosis
[23] = inhibitors of non-replicating M. tuberculosis, dose response, luciferase, dry powder (AID 651620); type: functional; settings: Mycobacterium tuberculosis
[24] = growth inhibition of replicating M. tuberculosis, dose response, counter-screen, dry powder, IC90 (AID 651617); type: functional; settings: Mycobacterium tuberculosis
[25] = cytotoxicity in HepG2 cells, dose response, cytotoxicity control, cell-based, plate reader, dry powder (AID 651947); type: functional
[26] = target: Kallikrein-7 (Homo sapiens, UniProt P49862); assay: Fluorescence Intensity-based biochemical primary high throughput dose response assay to identify activators of kallikrein-7 (K7) zymogen.
[27] = EDANS-DABCYL fluorescence interference, concentration series, dose response, artefact control for kallikrein-7 zymogen activator project, biochemical, fluorescence intensity, triplicate (AID 720493)
[28] = THP-1 cell cytotoxicity, dose response, cytotoxicity control for non-replicating M. tuberculosis project (AID 489025); type: functional
[29] = HepG2 cell cytotoxicity, dose response, cytotoxicity control for non-replicating M. tuberculosis project (AID 489018); type: functional; settings: Mycobacterium tuberculosis
[30] = Vero E6 cell cytotoxicity, dose response, cytotoxicity control for non-replicating M. tuberculosis project, secondary assay (AID 492998); type: functional, VeroE6; settings: Vero C1008
[31] = target: T1, Short transient receptor potential channel 4 (Mus musculus, UniProt Q9QUQ5); assay: mouse TRPC4 channel activators, dose response, cell-based, HEK293 TRPC4/mu-opioid, Fluo-4 calcium (AID 434937); type: functional
T1 sequence (Q9QUQ5 whole entry): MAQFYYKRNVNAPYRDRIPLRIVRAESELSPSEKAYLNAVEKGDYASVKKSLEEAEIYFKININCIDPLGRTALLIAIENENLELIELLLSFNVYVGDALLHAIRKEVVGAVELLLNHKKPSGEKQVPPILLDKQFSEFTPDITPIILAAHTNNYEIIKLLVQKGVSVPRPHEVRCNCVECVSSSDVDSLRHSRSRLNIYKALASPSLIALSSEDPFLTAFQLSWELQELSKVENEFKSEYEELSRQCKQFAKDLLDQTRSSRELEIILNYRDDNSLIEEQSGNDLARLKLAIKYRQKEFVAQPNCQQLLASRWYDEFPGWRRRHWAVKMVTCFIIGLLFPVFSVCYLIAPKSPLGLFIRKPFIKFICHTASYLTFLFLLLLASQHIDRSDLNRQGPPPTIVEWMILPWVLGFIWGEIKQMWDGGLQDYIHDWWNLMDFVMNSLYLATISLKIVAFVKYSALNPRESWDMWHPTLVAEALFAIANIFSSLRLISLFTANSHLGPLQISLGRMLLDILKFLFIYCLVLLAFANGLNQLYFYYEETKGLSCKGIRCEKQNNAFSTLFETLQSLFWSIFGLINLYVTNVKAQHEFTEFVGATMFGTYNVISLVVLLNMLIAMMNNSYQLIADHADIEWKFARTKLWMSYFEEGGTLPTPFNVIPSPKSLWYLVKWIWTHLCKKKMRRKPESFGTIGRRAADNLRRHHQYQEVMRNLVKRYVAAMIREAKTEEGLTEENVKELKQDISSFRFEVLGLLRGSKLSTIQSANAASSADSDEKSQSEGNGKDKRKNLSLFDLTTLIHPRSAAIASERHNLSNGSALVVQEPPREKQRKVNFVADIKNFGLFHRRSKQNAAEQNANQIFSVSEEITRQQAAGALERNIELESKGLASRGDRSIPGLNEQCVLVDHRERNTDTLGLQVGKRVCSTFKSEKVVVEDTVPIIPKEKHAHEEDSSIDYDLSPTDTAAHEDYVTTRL

[32] = cells; type: functional
[33] = tested on: Vero; assay: cells; type: functional, cell-based; settings: Chlorocebus sabaeus
[34] = tested on: Vero; assay: cells; type: functional; settings: Chlorocebus sabaeus
[35] = HepG2 cell cytotoxicity, dose response, cytotoxicity control, ATP luminescence, cherry-pick, set 6 (AID 1053125); type: functional, cell-based
[36] = human group III sPLA2 inhibitors, dose response, biochemical, QFRET, IC50 (AID 743457);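 also: green fluorescence rise as the enzyme cleaves BODIPY PC-A2 in liposomes; potency for inhibition of the enzyme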
[37] = cells; settings: A549
[38] = cells; settings: HEK293
[39] = inhibitors of HIV Env-driven cell fusion, dose response, cherry-pick (AID 652057); type: functional, cell-based
[40] = inhibitors of clade B AD8 Env fusion, dose response, cell-based, cherry-pick (AID 652062); type: functional;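 also: luciferase signal from cell-cell fusion driven by HIV-1 clade B AD8 Env; potency is for inhibitors of fusion seen as a drop in luminescence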
[41] = T. cruzi growth inhibition in host cells, dose response, cell-based, plate reader, dry powder, set 2 (AID 652275); type: functional
[42] = growth inhibition of intracellular T. cruzi, dose response, cell-based, plate reader, dry powder samples (AID 651845); type: functional
[43] = T. cruzi intracellular amastigote growth inhibition, dose response, imaging, CA-I/72 strain, bovine embryo skeletal muscle, dry powder (AID 651885); type: functional, cell-based

Chain of NAD-dependent protein deacylase sirtuin-5, mitochondrial (Q9NXA8 whole entry): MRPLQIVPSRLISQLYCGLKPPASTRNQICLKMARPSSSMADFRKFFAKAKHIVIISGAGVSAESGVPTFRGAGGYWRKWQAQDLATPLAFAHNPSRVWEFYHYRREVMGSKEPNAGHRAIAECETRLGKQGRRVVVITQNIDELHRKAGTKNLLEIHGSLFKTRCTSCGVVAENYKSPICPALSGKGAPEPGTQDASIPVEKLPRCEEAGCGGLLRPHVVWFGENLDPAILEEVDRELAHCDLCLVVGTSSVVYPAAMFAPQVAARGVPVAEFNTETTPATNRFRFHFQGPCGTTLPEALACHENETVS
Chain of Kallikrein-7 (P49862 whole entry): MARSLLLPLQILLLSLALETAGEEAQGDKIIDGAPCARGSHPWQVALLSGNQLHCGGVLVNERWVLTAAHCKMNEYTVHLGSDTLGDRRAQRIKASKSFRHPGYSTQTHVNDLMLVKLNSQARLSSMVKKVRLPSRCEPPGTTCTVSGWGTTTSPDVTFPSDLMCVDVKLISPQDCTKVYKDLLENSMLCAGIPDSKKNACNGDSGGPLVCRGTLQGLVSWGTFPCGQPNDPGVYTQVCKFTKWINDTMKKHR
Chain of DNA (cytosine-5)-methyltransferase 1 (P26358 whole entry): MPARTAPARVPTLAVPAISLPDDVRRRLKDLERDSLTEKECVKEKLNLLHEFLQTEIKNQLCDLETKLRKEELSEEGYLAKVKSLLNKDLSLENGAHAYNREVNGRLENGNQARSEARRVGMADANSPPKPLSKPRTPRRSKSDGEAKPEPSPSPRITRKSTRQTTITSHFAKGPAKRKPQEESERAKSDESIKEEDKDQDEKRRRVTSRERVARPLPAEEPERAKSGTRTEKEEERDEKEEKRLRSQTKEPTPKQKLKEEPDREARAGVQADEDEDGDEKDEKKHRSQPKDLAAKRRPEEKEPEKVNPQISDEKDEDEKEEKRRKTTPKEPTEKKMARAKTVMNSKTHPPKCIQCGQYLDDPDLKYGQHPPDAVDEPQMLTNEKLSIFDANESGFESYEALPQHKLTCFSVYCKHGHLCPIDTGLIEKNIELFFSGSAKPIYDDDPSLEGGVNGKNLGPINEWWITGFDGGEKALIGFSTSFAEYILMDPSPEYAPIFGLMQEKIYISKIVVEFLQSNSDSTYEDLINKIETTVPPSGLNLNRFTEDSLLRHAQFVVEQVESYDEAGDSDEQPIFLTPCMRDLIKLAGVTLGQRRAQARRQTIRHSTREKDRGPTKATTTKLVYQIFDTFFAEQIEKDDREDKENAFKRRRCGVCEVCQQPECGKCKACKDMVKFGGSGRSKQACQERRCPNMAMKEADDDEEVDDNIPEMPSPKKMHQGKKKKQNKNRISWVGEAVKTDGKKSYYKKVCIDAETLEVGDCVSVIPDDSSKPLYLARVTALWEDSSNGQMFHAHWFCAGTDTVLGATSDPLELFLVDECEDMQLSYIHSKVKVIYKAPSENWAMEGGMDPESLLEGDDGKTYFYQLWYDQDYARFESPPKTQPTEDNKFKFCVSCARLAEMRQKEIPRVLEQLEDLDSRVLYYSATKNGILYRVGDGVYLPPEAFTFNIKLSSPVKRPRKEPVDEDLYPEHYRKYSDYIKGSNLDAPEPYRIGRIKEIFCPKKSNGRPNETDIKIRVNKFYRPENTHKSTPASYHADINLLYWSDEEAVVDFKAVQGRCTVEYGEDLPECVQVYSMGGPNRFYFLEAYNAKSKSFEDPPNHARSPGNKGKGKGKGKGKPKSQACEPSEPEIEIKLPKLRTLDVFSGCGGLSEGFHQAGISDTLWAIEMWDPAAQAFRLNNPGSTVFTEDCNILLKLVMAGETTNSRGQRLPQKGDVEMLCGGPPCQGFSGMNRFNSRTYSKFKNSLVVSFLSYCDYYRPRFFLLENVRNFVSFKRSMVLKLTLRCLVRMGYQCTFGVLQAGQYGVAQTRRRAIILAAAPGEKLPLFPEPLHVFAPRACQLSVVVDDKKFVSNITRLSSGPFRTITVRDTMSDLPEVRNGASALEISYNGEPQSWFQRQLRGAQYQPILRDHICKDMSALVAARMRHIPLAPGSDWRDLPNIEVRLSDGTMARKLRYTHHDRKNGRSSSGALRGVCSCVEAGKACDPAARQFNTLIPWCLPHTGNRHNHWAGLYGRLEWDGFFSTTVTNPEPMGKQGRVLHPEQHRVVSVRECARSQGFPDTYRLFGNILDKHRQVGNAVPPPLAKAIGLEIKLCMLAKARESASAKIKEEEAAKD

CC(=O)c1ccc(Oc2cc(C)nc(-n3nc(C)cc3C)n2)cc1
inconclusive: EC50 [5] 63.8 µM
active: EC50 [1] 4.5 µM | EC50 [2] 1.95 µM | EC50 [3] 0.339 µM | EC50 [4] 0.44 µM | EC50 [6] 1.45 µM | EC50 [7] 0.917 µM | EC50 [9] 0.264 µM | AC50 [10] 15.8 µM
inactive: IC50 [8] > 80 µM | AC50 [11] > 30 µM

C[C@@H]1C/C=C/C[C@H](c2ccc(F)cc2)NC(=O)[C@@H](Cc2ccccc2)N(C)C(=O)c2ccccc2O1.C[C@@H]1C/C=C\C[C@H](c2ccc(F)cc2)NC(=O)[C@@H](Cc2ccccc2)N(C)C(=O)c2ccccc2O1
active: AC50 [12] 20.9 µM | AC50 [13] 4.01 µM

Cc1ccc(S(=O)(=O)N2[C@@H](c3ccc(C(C)(C)C)cc3)C(C(=O)O)=CC[C@H]2c2ccc(C(C)C)cc2)cc1
active: IC50 [14] 5.04 µM | AC50 [15] 17.5 µM

O=C(Nc1ccccc1F)N1CCCCN2[C@@H](CO)[C@@H](c3ccc(C#Cc4ccccc4)cc3)[C@@H]2C1
active: AC50 [16] 8.65 µM | AC50 [17] 15.9 µM | AC50 [18] 7.45 µM | AC50 [19] 2.13 µM | AC50 [20] 9.78 µM

CN1c2ccc(-c3ccc(C#N)cc3)cc2[C@H]2[C@H](CCN2C(=O)C2CCCCC2)[C@@H]1CO
active: AC50 [21] 36.2 µM

c1ccc(Cn2cc(CSc3nnc(C4CCC4)o3)nn2)cc1
active: IC90 [22] 4 µM | IC90 [23] 4 µM | IC90 [24] 250 µM

c1ccc(CSc2nnc(-c3cscn3)o2)cc1
active: AC50 [25] 34.4 µM

O=C1c2ccccc2NC(c2cccnc2)N1c1ccccc1F (stereo not drawn)
inactive: EC50 [26] > 69.5 µM
active: EC50 [27] > 7.72 µM

CCCOc1ccc(C(=O)NNC(=S)NC(=O)c2ccco2)cc1
inactive: AC50 [35] > 52 µM | IC50 [36] 44 µM
active: CC50 [28] 7.6 µM | CC50 [29] 17.4 µM | CC50 [30] 8.73 µM | EC50 [31] 5.96 µM | IC50 [32] 2.55 µM | IC50 [33] > 25 µM | CC50 [34] 20.7 µM | AC50 [37] 36.8 µM | AC50 [38] 42.2 µM

C[C@@H]1CN([C@H](C)CO)C(=O)c2cccc(NC(=O)c3ccncc3)c2O[C@H]1CN(C)CC1CCCCC1
active: AC50 [39] 0.884 µM | AC50 [40] 4.84 µM | AC50 [41] 0.303 µM | AC50 [42] 0.391 µM | IC50 [43] 0.961 µM
